This is an account of results in ChEMBL document CHEMBL1154551, “Microbial transformation of benzosampangine” (2000).

Structures are written as SMILES. Converted amounts (≈) assume the structure as drawn.

Assay type in all cases: functional
In assay [1] the test system is Cryptococcus neoformans. Nature of the assay: Antimicrobial activity against Cryptococcus neoformans.
Assay [2] has as its system Candida albicans. The assay can be described thus: Antimicrobial activity against Candida albicans.
In assay [3] the test system is Aspergillus fumigatus. Nature of the assay: Antimicrobial activity against Aspergillus fumigatus.

As to `C[C@@H]1[C@H](O)[C@@H](C)/C=C/C=C/C=C/C=C/C=C/C=C/C=C/[C@H](O[C@@H]2O[C@H](C)[C@@H](O)[C@H](N)[C@@H]2O)C[C@@H]2O[C@](O)(C[C@@H](O)C[C@@H](O)[C@H](O)CC[C@@H](O)C[C@@H](O)CC(=O)O[C@H]1C)C[C@H](O)[C@H]2C(=O)O` [AMPHOTERICIN B], the lowest concentration to inhibit growth in assay [1] (MIC) was 0.39 µg/mL (≈ 0.422 µM).
`O=C1c2ccccc2-c2nccc3c2c1nc1ccccc13` [BENZOSAMPANGINE]: the MIC (usually the lowest concentration that inhibits growth of the organism) in assay [2] was 0.39 µg/mL (≈ 1.38 µM); in assay [3], 0.39 µg/mL (≈ 1.38 µM); in assay [1] it was 1.56 µg/mL (≈ 5.53 µM).
